These compounds were tested against T1, Polθ polymerase domain (amino acids 1792-2590) (Homo sapiens, UniProt O75417) (assay: Picogreen assay of Polθ polymerase activity). Conditions: 12-point concentration response, 90 minutes incubation at room temperature, 8 nM Polθ in 2×polymerase mixture, read-out: PolQ IC50.
T1 construct: 10×Histidine-SUMO (N, cleaved yes); made in house; host or cells: E. coli
T1 sequence (O75417 1792-2590): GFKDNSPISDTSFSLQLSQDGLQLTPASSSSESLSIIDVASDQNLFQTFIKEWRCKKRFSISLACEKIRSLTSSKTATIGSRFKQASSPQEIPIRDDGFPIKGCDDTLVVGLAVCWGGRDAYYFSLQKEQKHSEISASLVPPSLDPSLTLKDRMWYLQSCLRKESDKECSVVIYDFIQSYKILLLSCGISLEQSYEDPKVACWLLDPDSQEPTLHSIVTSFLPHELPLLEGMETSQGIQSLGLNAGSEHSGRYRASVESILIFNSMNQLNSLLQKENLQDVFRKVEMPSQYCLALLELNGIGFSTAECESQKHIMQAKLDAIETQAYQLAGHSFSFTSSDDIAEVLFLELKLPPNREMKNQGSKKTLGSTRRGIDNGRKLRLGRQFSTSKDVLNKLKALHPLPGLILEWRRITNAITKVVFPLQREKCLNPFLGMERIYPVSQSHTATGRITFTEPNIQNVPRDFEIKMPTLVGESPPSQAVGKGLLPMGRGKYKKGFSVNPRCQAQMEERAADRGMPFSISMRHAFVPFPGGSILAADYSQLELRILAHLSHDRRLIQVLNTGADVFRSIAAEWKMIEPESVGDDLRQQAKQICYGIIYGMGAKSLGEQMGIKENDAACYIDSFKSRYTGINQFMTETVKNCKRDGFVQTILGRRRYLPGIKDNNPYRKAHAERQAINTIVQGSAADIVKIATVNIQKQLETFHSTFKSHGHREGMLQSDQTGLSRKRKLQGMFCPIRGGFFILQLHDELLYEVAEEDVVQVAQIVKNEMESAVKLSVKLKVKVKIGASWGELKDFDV
Assay type: biochemical
Excerpt: The DNA sequence of the polQ gene (Genebank ID #NM 199420.4) was chemically synthesized. The DNA sequence encoding the polymerase domain (amino acids 1792-2590) was subcloned into an E. coli expression plasmid, resulting in the fusion of 10×Histidine-SUMO tag at the N terminus of the polymerase domain.
The protein was expressed in E. coli. and purified using a 2-step IMAC (immobilized metal chelate affinity chromatography) procedure. Briefly stated, the overexpressed E. coli lysate was subjected to Ni-NTA purification, and an N-terminal tag was digested by a SUMO protease. Then, the excised fragment of 10×Histidine-SUMO tag was removed using Ni-NTA beads. The resulting protein was used for the Picogreen assay, as described below.
The methods of DNA complex preparation were slightly modified from the protocol previously reported (Zatreanu et al., 2021, Nature Communications, 12:3636). Briefly stated, polθ substrate was prepared by mixing Oligo1 (5′-GCG GCT GTC ATA AG-3′) and Oligo2 (5′-GCTACATTGACAATGGCATCAAATCTCAGATTGCGTCTTATGACAGCCGCG-3′) in an annealing buffer (20 mM Tris-Cl, pH 7.5, 50 mM NaCl) to the final concentration of 22 uM and 20 uM, respectively. The Polθ product was prepared by mixing Oligo3 (5′-CGCGGCTGTCATAAGACGCAATCTGAGATTTGATGCCATTGTCAATGTAGC-3′) and Oligo2 (5′-GCTACATTGACAATGGCATCAAATCTCAGATTGCGTCTTATGACAGCCGCG-3′) to the final concentration of 20 uM. The polθ product was used for the top signal control in the Picogreen assay. Both substrate and product were heated to 95° C. […] and cooled slowly to room temperature.
To evaluate the ability of test compounds to inhibit the activity of polθ in vitro, a Picogreen assay was performed to measure polθ IC50 (nM).
The reactions were performed at room temperature in an assay buffer (25 mM Tris-HCl, pH 7.5, 12.5 mM NaCl, 0.5 mM MgCl2, 5% (v/v) glycerol, 0.01% (v/v) Triton X-100, 0.01% (w/v) Bovine serum albumin, 1 mM DTT). Thirty microliters of 2×polymerase mixture (8 nM Polθ enzyme in an assay buffer) were distributed to 96 well plates, test compounds were prepared by dilution in 100% DMSO to obtain the correct dose range for a 12-point concentration response and 1 μl was dispensed into each well, and then 30 microliters of 2×substrate mix (100 nM DNA and 40 uM dNTPs in an assay buffer) was added. After 90 minutes of incubation, the reaction was stopped and DNA was stained by adding 40 microliters of Picogreen solution (1:80 dilution of Picogreen, Invitrogen, Cat #P7581, 25 mM Tris-HCl, pH 7.5, 10 mM EDTA, pH 7.5).
The fluorescence intensity was measured at excitation/emission=485 nm/520 nm using an Ensight plate reader (Perkin Elmer). The data was analyzed by GraphPad Prism software (Version 8.4.3) to calculate IC50.

SMILES	IC50 [nM]
Cc1cc(C(F)(F)F)cc(N2[C@H](C(=O)N(CC#Cc3cnc(N4C[C@H](C)N(C(C)C)[C@@H](C)C4)cn3)c3ccc(F)c(C)c3)CCS2(=O)=O)n1 (stereo in doubt) [compound 54]	> 101
Cc1cccc(N(CC#Cc2ccc(N)nn2)C(=O)[C@@H]2CCC(=O)N2c2cc(C(F)(F)F)cc(C)n2)c1 [compound 1]	1 to 50
Cc1cc(C(F)(F)F)cc(N2C(=O)CC[C@H]2C(=O)N(CC#Cc2ccc(N)nn2)c2ccc(F)c(C)c2F)n1 [compound 2]	1 to 50
Cc1cc(C(F)(F)F)cc(N2C(=O)CC[C@H]2C(=O)N(CC#Cc2ccc(N)nn2)c2ccc(F)c(Cl)c2)n1 [compound 3]	1 to 50
Cc1cc(C(F)(F)F)cc(N2C(=O)CC[C@H]2C(=O)N(CC#Cc2ccc(N)nn2)c2ccc(F)c(Cl)c2F)n1 [compound 4]	1 to 50
Cc1cc(C(F)(F)F)cc(N2C(=O)CC[C@H]2C(=O)N(CC#Cc2ccc(N)nn2)c2ccc(F)c(C)c2)n1 [compound 5]	1 to 50
Cc1cc(C(F)(F)F)cc(N2C(=O)CC[C@H]2C(=O)N(CC#Cc2cnc(N)cn2)c2ccc(F)c(C)c2)n1 [compound 6]	1 to 50
Cc1cc(C(F)(F)F)cc(N2C(=O)CC[C@H]2C(=O)N(CC#Cc2cccc(=O)[nH]2)c2ccc(F)c(C)c2)n1 [compound 7]	1 to 50
Cc1cc(C(F)(F)F)cc(N2C(=O)CC[C@H]2C(=O)N(CC#Cc2ccc(F)cn2)c2ccc(F)c(C)c2)n1 [compound 8]	1 to 50
Cc1cc(C(F)(F)F)cc(N2C(=O)CC[C@H]2C(=O)N(CC#Cc2cncn2C)c2ccc(F)c(C)c2)n1 [compound 9]	1 to 50
Cc1cc(C(F)(F)F)cc(N2C(=O)CC[C@H]2C(=O)N(CC#Cc2cnc(N3CCOCC3)cn2)c2ccc(F)c(C)c2)n1 [compound 10]	1 to 50
CCN1CCN(c2cnc(C#CCN(C(=O)[C@@H]3CCC(=O)N3c3cc(C(F)(F)F)cc(C)n3)c3ccc(F)c(C)c3)cn2)CC1 [compound 11]	1 to 50
Cc1cc(C(F)(F)F)cc(N2C(=O)CC[C@H]2C(=O)N(CC#Cc2ccc(C(N)=O)nc2)c2ccc(F)c(C)c2)n1 [compound 12]	> 101
CCN1CCN(CC#CCN(C(=O)[C@@H]2CCC(=O)N2c2cc(C(F)(F)F)cc(C)n2)c2ccc(F)c(C)c2F)CC1 [compound 13]	1 to 50
Cc1cc(C(F)(F)F)cc(N2C(=O)CC[C@H]2C(=O)N(CC#CCN2CCOCC2)c2ccc(F)c(C)c2F)n1 [compound 14]	1 to 50
Cc1cc(C(F)(F)F)cc(N2C(=O)CC[C@H]2C(=O)N(CC#CCN2CCN(c3cnccn3)CC2)c2ccc(F)c(C)c2F)n1 [compound 15]	1 to 50
Cc1cc(C(F)(F)F)cc(N2C(=O)CC[C@H]2C(=O)N(CC#CCN2CCN(c3ncccn3)CC2)c2ccc(F)c(C)c2F)n1 [compound 16]	1 to 50
Cc1cc(C(F)(F)F)cc(N2[C@H](C(=O)N(CC#Cc3cnc(N)cn3)c3ccc(F)c(C)c3F)CCS2(=O)=O)n1 [compound 17]	1 to 50
Cc1cc(C(F)(F)F)cc(N2[C@H](C(=O)N(CC#Cc3ccc(N)nn3)c3ccc(F)c(C)c3)CCS2(=O)=O)n1 [compound 18]	1 to 50
Cc1cc(C(F)(F)F)cc(N2[C@H](C(=O)N(CC#Cc3ccc(NC(C)C)nn3)c3ccc(F)c(C)c3)CCS2(=O)=O)n1 [compound 20]	1 to 50

SMILES	IC50 [nM]
Cc1cc(C(F)(F)F)cc(N2[C@H](C(=O)N(CC#Cc3ccc(NC(C)C)nn3)c3ccc(F)c(C)c3F)CCS2(=O)=O)n1 [compound 21]	1 to 50
CC(=O)Nc1ccc(C#CCN(C(=O)[C@@H]2CCS(=O)(=O)N2c2cc(C(F)(F)F)cc(C)n2)c2ccc(F)c(C)c2)nn1 [compound 22]	1 to 50
Cc1cc(C(F)(F)F)cc(N2[C@H](C(=O)N(CC#Cc3ccc(N4CCOCC4)nn3)c3ccc(F)c(C)c3)CCS2(=O)=O)n1 [compound 23]	1 to 50
CCN1CCN(c2ccc(C#CCN(C(=O)[C@@H]3CCS(=O)(=O)N3c3cc(C(F)(F)F)cc(C)n3)c3ccc(F)c(C)c3)nn2)CC1 [compound 24]	1 to 50
CCN(CC)c1ccc(C#CCN(C(=O)[C@@H]2CCS(=O)(=O)N2c2cc(C(F)(F)F)cc(C)n2)c2ccc(F)c(C)c2)nn1 [compound 25]	1 to 50
Cc1cc(C(F)(F)F)cc(N2[C@H](C(=O)N(CC#Cc3ccc(=O)[nH]n3)c3ccc(F)c(C)c3)CCS2(=O)=O)n1 [compound 26]	1 to 50
COc1ccc(C#CCN(C(=O)[C@@H]2CCS(=O)(=O)N2c2cc(C(F)(F)F)cc(C)n2)c2ccc(F)c(C)c2)nn1 [compound 27]	1 to 50
Cc1cc(C(F)(F)F)cc(N2[C@H](C(=O)N(CC#Cc3ccc(OC(F)F)nn3)c3ccc(F)c(C)c3)CCS2(=O)=O)n1 [compound 28]	1 to 50
Cc1cc(C(F)(F)F)cc(N2[C@H](C(=O)N(CC#Cc3ccc(C(N)=O)nn3)c3ccc(F)c(C)c3)CCS2(=O)=O)n1 [compound 29]	1 to 50
Cc1cc(C(F)(F)F)cc(N2[C@H](C(=O)N(CC#Cc3cnc(N)cn3)c3ccc(F)c(C)c3)CCS2(=O)=O)n1 [compound 30]	1 to 50
Cc1cc(C(F)(F)F)cc(N2[C@@H](C(=O)N(CC#Cc3cnc(N)cn3)c3ccc(F)c(C)c3F)CCS2(=O)=O)n1 [compound 31]	> 101
Cc1ccc(F)c(N(CC#Cc2cnc(N)cn2)C(=O)[C@@H]2CCS(=O)(=O)N2c2cc(C(F)(F)F)cc(C)n2)c1 [compound 33]	1 to 50
CC(=O)Nc1cnc(C#CCN(C(=O)[C@@H]2CCS(=O)(=O)N2c2cc(C(F)(F)F)cc(C)n2)c2ccc(F)c(C)c2)cn1 [compound 34]	1 to 50
Cc1cc(C(F)(F)F)cc(N2[C@H](C(=O)N(CC#Cc3cnc(NC(N)=O)cn3)c3ccc(F)c(C)c3)CCS2(=O)=O)n1 [compound 35]	1 to 50
Cc1cc(C(F)(F)F)cc(N2[C@H](C(=O)N(CC#Cc3cnc(NC(C)C)cn3)c3ccc(F)c(C)c3)CCS2(=O)=O)n1 [compound 36]	1 to 50
Cc1ccc(F)c(N(CC#Cc2cnc(NC(C)C)cn2)C(=O)[C@@H]2CCS(=O)(=O)N2c2cc(C(F)(F)F)cc(C)n2)c1 [compound 37]	1 to 50
Cc1cc(C(F)(F)F)cc(N2[C@H](C(=O)N(CC#Cc3cnc(N4CC5(COC5)C4)cn3)c3ccc(F)c(C)c3)CCS2(=O)=O)n1 [compound 38]	1 to 50
Cc1cc(C(F)(F)F)cc(N2[C@H](C(=O)N(CC#Cc3cnc(N4CCOCC4)cn3)c3ccc(F)c(C)c3)CCS2(=O)=O)n1 [compound 39]	1 to 50
Cc1ccc(F)c(N(CC#Cc2cnc(N3CCOCC3)cn2)C(=O)[C@@H]2CCS(=O)(=O)N2c2cc(C(F)(F)F)cc(C)n2)c1 [compound 40]	1 to 50
Cc1ccc(F)c(N(CC#Cc2cnc(N3CCOCC3)cn2)C(=O)[C@H]2CCS(=O)(=O)N2c2cc(C(F)(F)F)cc(C)n2)c1 [compound 41]	> 101
